Assay results: publication PMC9650016 (Brain, Behavior, & Immunity - Health, 2022)

Target: T1, PPM1A (protein phosphatase magnesium-dependent 1A; PP2Cα) (Homo sapiens, UniProt P35813)
T1 sequence (P35813 2-382): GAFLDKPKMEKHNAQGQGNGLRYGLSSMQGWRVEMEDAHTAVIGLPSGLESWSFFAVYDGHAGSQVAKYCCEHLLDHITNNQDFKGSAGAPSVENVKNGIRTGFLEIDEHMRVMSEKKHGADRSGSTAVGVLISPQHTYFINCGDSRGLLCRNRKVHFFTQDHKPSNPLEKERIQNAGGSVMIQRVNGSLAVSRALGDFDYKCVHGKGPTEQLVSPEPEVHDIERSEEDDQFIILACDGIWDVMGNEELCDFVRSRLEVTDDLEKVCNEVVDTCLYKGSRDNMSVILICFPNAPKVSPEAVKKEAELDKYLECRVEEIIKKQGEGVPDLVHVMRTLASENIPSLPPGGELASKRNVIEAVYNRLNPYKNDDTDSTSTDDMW
Experiment: microscale thermophoresis
Format: binding

CCCCCCCCCCCCCCCCOP(=O)([O-])OCC[N+](C)(C)C [MF, Miltefosine]
Kd: 2700 nM
